Source: paper PMC6142817, “New Urea Derivatives Are Effective Anti-senescence Compounds Acting Most Likely via a Cytokinin-Independent Mechanism” (Frontiers in Plant Science, 2018)
Several values for one entry are separate records, joined by “and”; a condition that tells them apart may be missing. Equal entries are not always repeated. Where two headings read alike, the source gives them in different places.

How the values were obtained:
[1] = system: detached wheat leaves (ethylene production); experiment: Ethylene accumulation assay; format: cell-based, Triticum aestivum; details: 10 μM, sealed vials; for ethylene production, fold of the control: days 3–6, dark; for ethylene production, fold of untreated leaves: first 3 days, dark
Protocol: Two detached leaf tips (final weight 50 mg) from 7-day-old wheat plants were incubated in 10 mL gas chromatography vials with either 1 mL of 0.1% DMSO (control), 10 μM ASES or 10 μM TDZ, and kept in the dark for 6 days at 25°C (1 day longer than the classical WLSA). On the third day, 1 mL of air from each vial was collected and the vials were then left open for 1 h and aerated with fresh air. Another 1 mL of air was collected from each vial on the sixth day. The amount of ethylene in each sample was determined using gas chromatography and the flame ionization detector method described by Fišerová et al. ([2001]).

[2] = system: Amaranthus caudatus cotyledon-hypocotyl explants; experiment: Amaranthus bioassay (betacyanin synthesis); format: cell-based, Amaranthus caudatus var. atropurpurea; details: for EC50: Amaranthus caudatus
Protocol: Tobacco callus, Amaranthus and Wheat leaf senescence assay (WLSA) were performed as described by Holub et al. ([1998]) including the number of repetitions in each assay. An exception to the published protocols was that the tobacco callus assay was performed in 6-well microtiter plates (with each well containing 3 ml of Murashige Skoog medium into which 0.1 g of callus was added). Each compound was tested at least twice in each assay and in a wider concentration range to obtain concentration-dependent activity curves. IC50 means compound concentration at which chlorophyll degradation is inhibited by 50% and EC50 means half the maximal effective concentration.
(§1) Amaranthus assay evaluates the induction of betacyanin synthesis in Amaranthus (Amaranthus caudatus var. atropurpurea) cotyledons, which is induced by cytokinins (Bamberger and Mayer, [1960]). The WLSA evaluates the ability of compounds to retard chlorophyll degradation in excised wheat leaves that are kept in the dark. The wheat leaf segments (Triticum aestivum cv. Hereward) were used in all other experiments requiring wheat. Arabidopsis (Arabidopsis thaliana) leaf senescence assay was performed with detached leaves from 30-day-old plants, which were grown in soil in phytotron under standard conditions (Rivero et al., [2014]). Four leaves of a combined weight of 60 mg were placed in a six-well plate and stored in the dark for 12 days at 22°C. The leaves (except the fresh control leaves) floated on water solutions of tested compounds. Fresh control leaves were leaves detached from a plant and immediately used for chlorophyll determination. The duration of the senescence assay of Arabidopsis leaves was prolonged to highlight the difference in chlorophyll content between a negative control and treatments. Arabidopsis leaves were losing chlorophyll more slowly than wheat leaves. Chlorophyll extraction and spectrophotometric determination of its content was done according to Holub et al. ([1998]).

[3] = system: ARR5:GUS reporter gene; experiment: Arabidopsis ARR5:GUS reporter gene assay; format: in vivo, Arabidopsis thaliana
Protocol: Transgenic Arabidopsis plants (Arabidopsis thaliana (L.) Heynh. accession Wassilewskija) harboring the GUS reporter gene (gene for β-glucuronidase) fused to 1.6 kb of the ARR5 (PARR5−GUS) gene promoter (D'Agostino et al., [2000]) were kindly provided by professor Thomas Schmülling. The assay was performed according to Romanov et al. ([2002]). β-Glucuronidase (GUS) activity was quantitatively determined by measuring fluorescence of 4-methylumbelliferyl (MU) on a Synergy H4 hybrid reader (Biotek, Winooski, VT) with excitation and emission wavelengths of 365 and 445 nm, respectively. GUS specific activity was determined as nmol MU × mg protein^−1 × h^−1. This was calculated by dividing the relative fluorescence units (obtained per hour) by protein content of the same sample. Protein extraction was done as described by Romanov et al. ([2002]) but its content was determined using a bicinchoninic acid reagent (Smith et al., [1985]). Finally we expressed the GUS activity in samples as a relative percentage, the activity of 1 μM BA being set as 100% activation. The concentration-dependent activity curves and EC50 values (for TDZ, tZ, BA, TD-iP, and TD-tZ) were constructed using Scion image program.

[4] = system: Triticum aestivum roots; experiment: Wheat root elongation assay; format: in vivo; details: 0.1 μM, 14-day-old plants; control 10.4 cm
Protocol: (§2) Seeds of Triticum aestivum were surface sterilized by washing with 96% ethanol (10 min) and sown in a hydroponic growing system (Araponics, Liege, Belgium) using Hoagland's solution supplemented with either 0.1 μM TDZ, 0.1 μM ASES or 0.01% DMSO (solvent control). The plants were grown in a growth chamber at 25°C with a 16/8 h light period at 130 μM m^−2s^−1. The root lengths of at least 50 plants were measured 2 weeks after the plants had been sown. Seeds of Arabidopsis thaliana (wild-type Col-0) were surface sterilized by the same procedure as seeds of wheat and sown on vertical plates using half-strength Murashige-Skoog medium (supplemented with 0.1% sucrose and 6 g/L phytagel) containing either 0.1 μM TDZ, 0.1 μM ASES or 0.01% DMSO (solvent control). After vernalization (4 days in the dark, 4°C), the plates were transferred into a growth chamber (22°C, 16/8 light/dark, 130 μM m^−2s^−1). Root elongation was scored 2 weeks after the transfer, with measurements from at least 40 plants for each treatment. The whole experiment was repeated twice.

[5] = system: detached wheat leaves (membrane lipid peroxidation); experiment: TBARS content (lipid peroxidation) in leaves from WLSA; format: cell-based, Triticum aestivum; details: 5 days in the dark, DMSO control = 100%
Protocol: Four leaf segments of combined weight of 100 mg from WLSA (5 days in the dark) were used for the determination of TBARS. Each sample was done in five repetitions (5 × 100 mg). The peroxidation of leaf membrane lipids was determined as described by Kováčik et al. ([2006]), with minor modifications—wheat leaves were extracted with 80% methanol and the trichloroacetic acid content was decreased to 0.1%.

[6] = system: Arabidopsis thaliana roots; experiment: Arabidopsis root elongation assay; format: in vivo, Arabidopsis thaliana (wild-type Col-0); details: 0.1 μM, 14 days; for Arabidopsis root growth (length): control 3.5 cm
Protocol: as §2

[7] = system: detached Arabidopsis leaves (chlorophyll loss in the dark); experiment: Arabidopsis leaf senescence assay; format: cell-based, Arabidopsis thaliana; details: for % of the chlorophyll retained: 0.01 μM; for % of the chlorophyll retained / % more of chlorophyll retained than DMSO (negative control): 12 days in the dark; for % more of chlorophyll retained than DMSO (negative control): 1 μM; for times more effective than BA in Arabidopsis leaf senescence assay: compared to the activity of BA in 1 μM
Source text: as §1

For `COCCNC(=O)Nc1cnns1` [ASES, 1-(2-methoxy-ethyl)-3-1,2,3-thiadiazol-5-yl-urea], the “ethylene production, fold of the control” value [1] was 1.22 fold, the “ethylene production, fold of untreated leaves” value [1] was 1.36 fold and the “fold lower potency than BA in inducing betacyanin” value [2] was ~5 fold. For the same compound, the “fold lower potency than TDZ in inducing betacyanin” value [2] was “approximately 1,000 fold”, the EC50 ([2]; betacyanin synthesis, N.A. = not active, read-out: Amaranthus bioassay (EC50)) was 4 µM and the “ARR5:GUS activity, % of BA activity” value ([3]; compound at 10 μM, 1 μM BA = 100%) was 55–65%. For the same compound, the wheat root length [4] was 11.0 cm, the “TBARS content (relative %)” value ([5]; 0.01 μM) was 105 (±5) % and the “TBARS content (relative %)” value ([5]; 0.1 μM) was 91 (±10) %. The “TBARS content (relative %)” value ([5]; 1 μM) was 47 (±4) %, the “TBARS content (relative %)” value ([5]; 10 μM) was 31 (±5) % and the “TBARS content (relative %)” value ([5]; 100 μM, fresh control = 0) was 24 (±6) % and 24%. The “Arabidopsis root growth (length)” value [6] was 4.2 cm, the “% of the chlorophyll retained” value [7] was “more than 55%” and the “% more of chlorophyll retained than DMSO (negative control)” value [7] was 96%. For the same compound, the “times more effective than BA in Arabidopsis leaf senescence assay” value [7] was “approximately 100 times”.
For `O=C(Nc1ccccc1)Nc1cnns1` [TDZ, 1-phenyl-3-(1,2,3-thiadiazol-5-yl)urea, reference compound], the “ethylene production, fold of the control” value [1] was 2.18 fold, the “ethylene production, fold of untreated leaves” value [1] was 2.02 fold and the “activity in Amaranthus assay, fold exceeding all other cytokinins” value [2] was “at least 100 fold”. The EC50 ([2]; read-out: Amaranthus bioassay (EC50, μM)) was 0.004 µM, the EC50 ([3]; Arabidopsis thaliana, read-out: ARR5:GUS activation EC50) was 4 nM and the wheat root length [4] was 3.2 cm. For the same compound, the “TBARS content (relative %)” value ([5]; 0.01 μM) was 101 (±5) %, the “TBARS content (relative %)” value ([5]; 0.1 μM) was 80 (±3) % and the “TBARS content (relative %)” value ([5]; 1 μM) was 71 (±6) %. The “TBARS content (relative %)” value ([5]; 10 μM) was 68 (±8) %, the “TBARS content (relative %)” value ([5]; 100 μM, fresh control = 0) was 55 (±10) % and the “reduction of Arabidopsis root growth compared to the control” value [6] was 50%. The “Arabidopsis root growth (length)” value [6] was 1.7 cm, the “% of the chlorophyll retained” value [7] was “more than 55%” and the “% more of chlorophyll retained than DMSO (negative control)” value [7] was 85%. The “times more effective than BA in Arabidopsis leaf senescence assay” value [7] was “approximately 100 times”.
